Measured values as given in patent US12421252B2, “Spiro (isobenzofuranazetidine) compounds for the treatment of autoimmune disease” (Hoffmann-La Roche Inc., priority 2020, dated 2025).

Biological target: T1, human TLR8 (Homo sapiens, UniProt Q9NR97)
T1 sequence (Q9NR97 27-1041): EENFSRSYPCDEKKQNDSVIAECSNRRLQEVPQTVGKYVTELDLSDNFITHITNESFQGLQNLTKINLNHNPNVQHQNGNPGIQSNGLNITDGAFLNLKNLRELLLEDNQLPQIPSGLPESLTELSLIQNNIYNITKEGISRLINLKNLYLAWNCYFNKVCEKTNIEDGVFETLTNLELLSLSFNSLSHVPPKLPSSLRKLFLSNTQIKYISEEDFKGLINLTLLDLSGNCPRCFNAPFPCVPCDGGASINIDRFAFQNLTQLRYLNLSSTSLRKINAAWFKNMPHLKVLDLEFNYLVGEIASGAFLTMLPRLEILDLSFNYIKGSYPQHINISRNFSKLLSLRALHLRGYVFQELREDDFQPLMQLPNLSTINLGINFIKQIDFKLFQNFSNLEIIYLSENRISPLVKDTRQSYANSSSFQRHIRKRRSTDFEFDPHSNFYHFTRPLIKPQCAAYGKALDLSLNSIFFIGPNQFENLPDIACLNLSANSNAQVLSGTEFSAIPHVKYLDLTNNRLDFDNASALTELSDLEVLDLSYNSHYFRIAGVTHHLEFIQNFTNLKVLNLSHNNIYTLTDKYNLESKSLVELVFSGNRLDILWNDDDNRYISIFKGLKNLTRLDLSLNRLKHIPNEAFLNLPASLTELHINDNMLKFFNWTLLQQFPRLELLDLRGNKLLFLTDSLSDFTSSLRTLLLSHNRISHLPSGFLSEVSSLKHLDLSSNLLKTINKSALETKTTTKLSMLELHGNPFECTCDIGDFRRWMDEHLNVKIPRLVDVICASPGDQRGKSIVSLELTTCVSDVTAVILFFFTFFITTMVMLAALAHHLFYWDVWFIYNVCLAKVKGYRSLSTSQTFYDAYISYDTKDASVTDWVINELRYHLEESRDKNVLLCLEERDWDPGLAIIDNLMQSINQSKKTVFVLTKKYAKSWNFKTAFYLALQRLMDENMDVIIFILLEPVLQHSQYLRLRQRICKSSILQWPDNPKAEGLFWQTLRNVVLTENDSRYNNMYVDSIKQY
Test: HEK293-Blue-hTLR-8 cells assay
Type: cell-based
Settings: HEK293-Blue-hTLR8 cells, R848 stimulation, 20 hrs, SEAP reporter; read-out: HEK/hTLR8 IC50
From the text: HEK293-Blue-hTLR-8 cells assay:
A stable HEK293-Blue-hTLR-8 cell line was purchased from InvivoGen (Cat. #: hkb-htlr8, San Diego, California, USA). These cells were originally designed for studying the stimulation of human TLR8 by monitoring the activation of NF-κB. A SEAP (secreted embryonic alkaline phosphatase) reporter gene was placed under the control of the IFN-β minimal promoter fused to five NF-κB and AP-1-binding sites. The SEAP was induced by activating NF-κB and AP-1 via stimulating HEK-Blue hTLR8 cells with TLR8 ligands. Therefore the reporter expression was declined by TLR8 antagonist under the stimulation of a ligand, such as R848, for incubation of 20 hrs. The cell culture supernatant SEAP reporter activity was determined using QUANTI-Blue™kit (Cat. #: rep-qb1, Invivogen, San Diego, Ca, USA) at a wavelength of 640 nm, a detection medium that turns purple or blue in the presence of alkaline phosphatase.
HEK293-Blue-hTLR8 cells were incubated at a density of 250,000˜450,000 cells/mL in a volume of 170 μL in a 96-well plate in Dulbecco's Modified Eagle's medium (DMEM) containing 4.5 g/L glucose, 50 U/mL penicillin, […], […], 2 mM L-glutamine, 10% (v/v) heat-inactivated fetal bovine serum with addition of 20 μL test compound in a serial dilution in the presence of final DMSO at 1% and 10 μL of 60 uM R848 in above DMEM, perform incubation under 37° C. in a CO2 incubator for 20 hrs. Then 20 μL of the supernatant from each well was incubated with 180 μL Quanti-blue substrate solution at 37° C. for 2 hrs and the absorbance was read at 620-655 nm using a spectrophotometer. The signaling pathway that TLR8 activation leads to downstream NF-κB activation has been widely accepted, and therefore similar reporter assay was modified for evaluating TLR8 antagonist.

| IC50 [nM] | Structure (SMILES) |
| --- | --- |
| 120 | C[C@@H]1CN(c2ccc(C#N)n3nccc23)C[C@H](CN2CC3(C2)OCc2cc(N4CC(C)(N)C4)ncc23)O1 [Example 25, 4-[(2S,6R)-2-[[6-(3-amino-3-methyl-azetidin-1-yl)spiro[1H-furo[3,4-c]pyridine-3,3′-azetidine]-1′-yl]methyl]-6-methyl-morpholin-4-yl]pyrazolo[1,5-a]pyridine-7-carbonitrile] |
| 64 | C[C@@H]1CN(c2ccc(C#N)n3ncc(F)c23)C[C@H](CN2CC3(C2)OCc2cc(N4CC5(CN(C)C5)C4)cnc23)O1 [Example 22, 3-fluoro-4-[(2R,6S)-2-methyl-6-[[3-(6-methyl-2,6-diazaspiro[3.3]heptan-2-yl)spiro[5H-furo[3,4-b]pyridine-7,3′-azetidine]-1′-yl]methyl]morpholin-4-yl]pyrazolo[1,5-a]pyridine-7-carbonitrile] |
| 409 | C[C@@H]1CN(c2cc(=O)n(C)c3ncccc23)C[C@H](CN2CC3(C2)OCc2cc(N4CC(N)C4)ccc23)O1 [Example 13, 4-[(2S,6R)-2-[[6-(3-aminoazetidin-1-yl)spiro[1H-isobenzofuran-3,3′-azetidine]-1′-yl]methyl]-6-methyl-morpholin-4-yl]-1-methyl-1,8-naphthyridin-2-one] |
| 30 | [2H]c1ccc2c(N3C[C@H](CN4CC5(C4)OCc4cc(N6CC(N)C6)cnc45)O[C@H](C)C3)ccc(C#N)c2n1 [Example 20, 5-[(2S,6R)-2-[[3-(3-aminoazetidin-1-yl)spiro[5H-furo[3,4-b]pyridine-7,3′-azetidine]-1′-yl]methyl]-6-methyl-morpholin-4-yl]-2-deuterio-quinoline-8-carbonitrile] |

Continued, molecule first:

| Structure (SMILES) | IC50 [nM] |
| --- | --- |
| C[C@@H]1CN(c2ccc(C#N)n3ncc(F)c23)C[C@H](CN2CC3(C2)OCc2cc(N4C[C@H](N)[C@@H](O)C4)ccc23)O1 [Example 10, 4-[(2S,6R)-2-[[6-[(3S,4S)-3-amino-4-hydroxy-pyrrolidin-1-yl]spiro[1H-isobenzofuran-3,3′-azetidine]-1′-yl]methyl]-6-methyl-morpholin-4-yl]-3-fluoro-pyrazolo[1,5-a]pyridine-7-carbonitrile] | 142 |
| C[C@@H]1CN(c2ccc(C#N)n3nccc23)C[C@H](CN2CC3(C2)OCc2cc(N4CC5(CNCCO5)C4)ccc23)O1 [Example 7, 4-[(2R,6S)-2-methyl-6-[[6-(5-oxa-2,8-diazaspiro[3.5]nonan-2-yl)spiro[1H-isobenzofuran-3,3′-azetidine]-1′-yl]methyl]morpholin-4-yl]pyrazolo[1,5-a]pyridine-7-carbonitrile] | 58 |
| [2H]c1ccc2c(N3C[C@H](CN4CC5(C4)OCc4cc(N6C[C@@H](N)[C@H](OC)C6)ccc45)O[C@H](C)C3)ccc(C#N)c2n1 [Example 16, 5-[(2S,6R)-2-[[6-[(3R,4R)-3-amino-4-methoxy-pyrrolidin-1-yl]spiro[1H-isobenzofuran-3,3′-azetidine]-1′-yl]methyl]-6-methyl-morpholin-4-yl]-2-deuterio-quinoline-8-carbonitrile] | 13 |
| C[C@@H]1CN(c2ccc(C#N)n3ncc(F)c23)C[C@H](CN2CC3(C2)OCc2cc(N4CC5(CN(C)C5)C4)ccc23)O1 [Example 2, 3-fluoro-4-[(2R,6S)-2-methyl-6-[[6-(6-methyl-2,6-diazaspiro[3.3]heptan-2-yl)spiro[1H-isobenzofuran-3,3′-azetidine]-1′-yl]methyl]morpholin-4-yl]pyrazolo[1,5-a]pyridine-7-carbonitrile] | 25 |
